Results from US10308899B2, “Liquid automatic dish washing detergent compositions” (Novozymes A/S, priority 2013, dated 2019).
Primed or numbered codes have the meaning given here. The star is where a group is joined. aldehyde′ = not defined here; Cbz = O=C(OCc1ccccc1)*; Moc = COC(=O)*

T1: Protease1 (subtilisin 309) (Bacillus lentus)
T1 chain: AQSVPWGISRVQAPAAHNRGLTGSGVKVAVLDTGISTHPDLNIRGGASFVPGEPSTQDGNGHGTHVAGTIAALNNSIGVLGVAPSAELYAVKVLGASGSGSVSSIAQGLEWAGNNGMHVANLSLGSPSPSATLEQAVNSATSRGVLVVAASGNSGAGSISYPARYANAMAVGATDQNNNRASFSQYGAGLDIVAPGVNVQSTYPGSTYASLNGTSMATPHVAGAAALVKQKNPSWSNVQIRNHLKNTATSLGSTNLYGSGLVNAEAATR

T2: Protease2 (variant of subtilisin 309) (Artificial sequence)
T2 chain: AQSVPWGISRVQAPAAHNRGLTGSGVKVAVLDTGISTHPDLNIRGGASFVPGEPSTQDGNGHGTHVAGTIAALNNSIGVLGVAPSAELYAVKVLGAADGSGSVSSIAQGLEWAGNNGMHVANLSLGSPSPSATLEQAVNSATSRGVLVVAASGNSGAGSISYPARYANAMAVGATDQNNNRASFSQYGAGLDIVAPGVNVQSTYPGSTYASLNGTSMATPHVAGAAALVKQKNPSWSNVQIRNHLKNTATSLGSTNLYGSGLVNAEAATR

T3: Protease1 (subtilisin 309) (Lederbergia lenta, UniProt P29600)
T3 sequence (P29600 1-269): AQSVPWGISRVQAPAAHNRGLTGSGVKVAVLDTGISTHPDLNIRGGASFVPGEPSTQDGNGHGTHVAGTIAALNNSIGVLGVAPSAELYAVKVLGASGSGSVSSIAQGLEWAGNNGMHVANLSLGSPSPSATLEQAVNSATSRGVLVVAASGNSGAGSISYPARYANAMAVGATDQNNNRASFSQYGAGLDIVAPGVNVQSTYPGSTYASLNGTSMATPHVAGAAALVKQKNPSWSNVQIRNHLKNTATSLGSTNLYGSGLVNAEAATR

T4: Protease4 (subtilisin BPN′) (Artificial sequence)
T4 chain: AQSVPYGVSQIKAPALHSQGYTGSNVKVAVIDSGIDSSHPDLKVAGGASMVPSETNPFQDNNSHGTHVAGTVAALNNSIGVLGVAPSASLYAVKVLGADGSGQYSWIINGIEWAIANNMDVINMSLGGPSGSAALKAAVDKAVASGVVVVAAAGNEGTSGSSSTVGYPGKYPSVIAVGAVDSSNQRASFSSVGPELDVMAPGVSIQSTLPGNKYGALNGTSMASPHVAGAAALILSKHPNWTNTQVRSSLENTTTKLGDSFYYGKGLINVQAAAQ


What was measured:
[1] = logarithmic stability constant of the cation/chelator complex; ionic strength of 0.1 M, 25° C.; cited from earlier work
[2] = biological target: Protease4 (subtilisin BPN′) (Bacillus amyloliquefaciens, UniProt P00782, Y324L); assay: Storage stability of Protease4 in liquid ADW detergent (residual protease activity, N,N-dimethylcasein hydrolysis); assay type: biochemical; settings: Detergent A, Example 2
From the text: Chemicals used as buffers and substrates were commercial products of at least reagent grade. Protease1, Protease2, Protease3, and Protease4, as used in the examples below, are subtilisin proteases. Protease1 has the amino acid sequence shown in SEQ ID NO: 1 (subtilisin 309). Protease2 has the amino acid sequence shown in SEQ ID NO: 2 (variant of subtilisin 309). Protease3 has the amino acid sequence shown in SEQ ID NO: 3 (variant of subtilisin 309). Protease4 has the amino acid sequence shown in SEQ ID NO: 4 (subtilisin BPN′).
Various peptide aldehydes were produced, all with a purity >80%. The peptide aldehydes were dissolved in DMSO to a concentration of 10 mg/ml before use.
(§1) To detergent A from Example 1, the following amount of enzyme and different inhibitors (peptide aldehydes) were added, all samples normalized to 100 g of detergent. […] Three subtilisin proteases were used: Protease1, Protease2, and Protease4, all in concentration of 0.04 g active enzyme protein per gram of enzyme solution.
(§2) The detergents were placed in closed glasses at 37° C. for 2 weeks. Residual activity of protease was measured (by comparison to a reference stored at −18° C.) using standard enzyme analytical method (protease activity measured by hydrolysis of N,N-dimethylcasein at 40° C., pH=8.3).

[3] = biological target: T1, Protease1 (subtilisin 309); assay: cell-based or functional assay
[4] = biological target: T2, Protease2 (variant of subtilisin 309); assay: cell-based or functional assay
[5] = biological target: T3, Protease1 (subtilisin 309); assay: Storage stability of Protease1 in liquid ADW detergent (residual protease activity, N,N-dimethylcasein hydrolysis); assay type: biochemical; settings: Protease1, no inhibitor, Detergent A, Example 2
Description: (§3) Chemicals used as buffers and substrates were commercial products of at least reagent grade. Protease1, Protease2, Protease3, and Protease4, as used in the examples below, are subtilisin proteases. Protease1 has the amino acid sequence shown in SEQ ID NO: 1 (subtilisin 309). […] Protease4 has the amino acid sequence shown in SEQ ID NO: 4 (subtilisin BPN′).
as §1, §2

[6] = biological target: T4, Protease4 (subtilisin BPN′); assay: cell-based or functional assay
[7] = biological target: Protease3 (variant of subtilisin 309) (Lederbergia lenta, UniProt P29600, INS97E); assay: Storage stability of Protease3 in liquid ADW detergent (residual protease activity, N,N-dimethylcasein hydrolysis); assay type: biochemical; settings: Protease3, no inhibitor
Description: as §3
(§4) The peptide aldehyde hydrosulfite adduct described above was dissolved in 40% propylene glycol and water was added to make a 24% w/w solution of the adduct.
(§5) [formula] […] Protease2 and Protease3 were used in concentrations of 0.04 g active enzyme protein per gram of enzyme solution.
as §2

[8] = biological target: Protease2 (variant of subtilisin 309) (Lederbergia lenta, UniProt P29600, DUP96-96/S97D); assay: Storage stability of Protease2 in liquid ADW detergent (residual protease activity, N,N-dimethylcasein hydrolysis); assay type: biochemical; settings: Protease2, no inhibitor
Description: as §3, §4, §5, §2, §1

| Molecule | Log KCa [1] | also measured |
| --- | --- | --- |
| O=C(O)CC(NCCNC(CC(=O)O)C(=O)O)C(=O)O (mixture of isomers) [EDDS, ethylenediaminedisuccinic acid] | 4.6 |  |
| O=P(O)(O)CN(CP(=O)(O)O)CP(=O)(O)O [AMP, Amino-tris-(methylene-phosphonic acid)] | 1.7 |  |
| O=C([O-])[O-].[Na+].[Na+] [Carbonate, sodium carbonate] | 7.8 |  |
| O=C(O)CC(O)(CC(=O)O)C(=O)O [Citric acid] | 3.5 |  |
| O=P(O)(O)CN(CCN(CP(=O)(O)O)CP(=O)(O)O)CCN(CP(=O)(O)O)CP(=O)(O)O [DTPMP, Diethylenetriamine Penta(Methylene Phosphonic acid)] | 7.1 |  |
| O=C(O)CN(CCN(CC(=O)O)CC(=O)O)CC(=O)O [EDTA, Ethylenediaminetetraacetic acid] | 10.7 |  |
| O=C([O-])CC[C@@H](C(=O)[O-])N(CC(=O)[O-])CC(=O)[O-].[Na+].[Na+].[Na+].[Na+] [GLDA, L-glutamic acid N,N-diacetic acid tetra sodium salt] | 5.2 |  |
| CC(O)(P(=O)(O)O)P(=O)(O)O [HEDP, 1-Hydroxy Ethylidene-1,1-Diphosphonic Acid] | 6 |  |
| O=C(O)CC(NC(CC(=O)O)C(=O)O)C(=O)O (stereo not drawn) [IDS, iminodisuccinic acid] | 5.2 |  |
| CC(C(=O)O)N(CC(=O)O)CC(=O)O (stereo not drawn) [MGDA, methylglycinediacetic acid] | 7 |  |
| O=C(O)CN(CC(=O)O)CC(=O)O [NTA, Nitrilotriacetic acid] | 6.4 |  |
| O=P(O)(O)CN(CP(=O)(O)O)CP(=O)(O)O [NTMP, Nitrilo trimethylene phosphonic acid] | 7.6 |  |
| O=P(O)(O)OP(=O)(O)O [Pyrophosphate] | 5 |  |
| O=P(O)(O)OP(=O)(O)OP(=O)(O)O [STPP, sodium tripolyphosphate] | 5.36 |  |
| Moc-Val-Ala-Leu-H (Moc-Val-Ala-Leu-{aldehyde′}; reading uncertain; also: printed as Moc-Val-Ala-Leu-H) [peptide aldehyde, Moc is methoxycarbonyl] |  | Residual protease activity after two weeks at 37° C. ([2]; Protease4 with 3.3 mg peptide aldehyde/100 g (mole ratio 3.2)): 57% |
| Cbz-Gly-Ala-Tyr-aldehyde (also: C-terminal aldehyde on Tyr) [Cbz-Gly-Ala-Tyr-H] |  | Residual protease activity after two weeks at 37° C. [3]: 81%; Residual protease activity after two weeks at 37° C. [4]: 86% |
| Protease1: subtilisin protease, amino acid sequence SEQ ID NO: 1 (subtilisin 309) (protein, listed as Bacillus lentus) AQSVPWGISRVQAPAAHNRGLTGSGVKVAVLDTGISTHPDLNIRGGASFVPGEPSTQDGNGHGTHVAGTIAALNNSIGVLGVAPSAELYAVKVLGASGSGSVSSIAQGLEWAGNNGMHVANLSLGSPSPSATLEQAVNSATSRGVLVVAASGNSGAGSISYPARYANAMAVGATDQNNNRASFSQYGAGLDIVAPGVNVQSTYPGSTYASLNGTSMATPHVAGAAALVKQKNPSWSNVQIRNHLKNTATSLGSTNLYGSGLVNAEAATR |  | Residual protease activity after two weeks at 37° C. [5]: 25% |
| Moc-Val-Ala-Leu-aldehyde (also: C-terminal aldehyde on Leu) [Moc-Val-Ala-Leu-H] |  | Residual protease activity after two weeks at 37° C. [6]: 57% |
| Protease3: subtilisin protease, SEQ ID NO: 3 (variant of subtilisin 309) (protein, variant of SEQ ID NO 1) AQSVPWGISRVQAPAAHNRGLTGSGVKVAVLDTGISTHPDLNIRGGASFVPGEPSTQDGNGHGTHVAGTIAALNNSIGVLGVAPSAELYAVKVLGASEGSGSVSSIAQGLEWAGNNGMHVANLSLGSPSPSATLEQAVNSATSRGVLVVAASGNSGAGSISYPARYANAMAVGATDQNNNRASFSQYGAGLDIVAPGVNVQSTYPGSTYASLNGTSMATPHVAGAAALVKQKNPSWSNVQIRNHLKNTATSLGSTNLYGSGLVNAEAATR |  | Residual protease activity after two weeks at 37° C. ([7]; Detergent A (invention)): 6%; Residual protease activity after two weeks at 37° C. ([7]; Detergent B (invention)): 44%; Residual protease activity after two weeks at 37° C. ([7]; Detergent C (reference)): 74% |
| Protease2: subtilisin protease, SEQ ID NO: 2 (variant of subtilisin 309) (protein, variant of SEQ ID NO 1) AQSVPWGISRVQAPAAHNRGLTGSGVKVAVLDTGISTHPDLNIRGGASFVPGEPSTQDGNGHGTHVAGTIAALNNSIGVLGVAPSAELYAVKVLGAADGSGSVSSIAQGLEWAGNNGMHVANLSLGSPSPSATLEQAVNSATSRGVLVVAASGNSGAGSISYPARYANAMAVGATDQNNNRASFSQYGAGLDIVAPGVNVQSTYPGSTYASLNGTSMATPHVAGAAALVKQKNPSWSNVQIRNHLKNTATSLGSTNLYGSGLVNAEAATR |  | Residual protease activity after two weeks at 37° C. ([8]; Detergent A (invention), Example 1): 1%; Residual protease activity after two weeks at 37° C. ([8]; Detergent A, Example 2): 1%; Residual protease activity after two weeks at 37° C. ([8]; Detergent B (invention), Example 1): 10%; Residual protease activity after two weeks at 37° C. ([8]; Detergent C (reference), Example 1): 76% |
| Protease4: subtilisin protease, SEQ ID NO: 4 (subtilisin BPN′) (protein, BPN′ variant) AQSVPYGVSQIKAPALHSQGYTGSNVKVAVIDSGIDSSHPDLKVAGGASMVPSETNPFQDNNSHGTHVAGTVAALNNSIGVLGVAPSASLYAVKVLGADGSGQYSWIINGIEWAIANNMDVINMSLGGPSGSAALKAAVDKAVASGVVVVAAAGNEGTSGSSSTVGYPGKYPSVIAVGAVDSSNQRASFSSVGPELDVMAPGVSIQSTLPGNKYGALNGTSMASPHVAGAAALILSKHPNWTNTQVRSSLENTTTKLGDSFYYGKGLINVQAAAQ |  | Residual protease activity after two weeks at 37° C. ([2]; Protease4, no inhibitor): 5% |
